Data set [1] can be described thus: solubility in aqueous solutions and organic solvents. The format is physicochemical.
Data set [2] in a line: pH of a saturated solution in deionized water. In kind it is physicochemical.
The nature of data set [3]: apparent partition coefficient between octanol and water. In kind it is physicochemical. To be noted: buffered at pH 7.2.
Data set [4] is described as follows: stability in the solid state. The format is physicochemical. To be noted: stored at ambient conditions.
For data set [5] the following is noted: cited from earlier work.

Some results are limits rather than exact numbers.

As for `O=S1(=O)CCN(CN2CCS(=O)(=O)NC2)CN1` [taurolidine, 4,4′-methylenebis(tetrahydro-1,2,4-thiadiazine)-1,1,1′,1′,-tetraoxide], the solubility entry in data set [1] (CHCl3) is “insoluble”; in data set [1] (Dilute HCl), “soluble”; in data set [1] (Dilute NaOH), “soluble”; in data set [1] (EtOH) it was “sparingly soluble”; in data set [1] (Water, at 20° C.), 1% at 20 °C. Besides, the “pH of a saturated solution” value in data set [2] amounted to 7.4. Moreover, the “apparent partition coefficient between octanol and water” value in data set [3] was “approximately 0.13”. In addition, the “stability in the solid state” value in data set [4] was “acceptable stability”. For the same molecule, the “cumulative dose shown to be safe and well tolerated” value in data set [5] (cumulative doses, up to and exceeding) is given as ≥ 300 g. Also, in data set [5] (systemic doses), the “systemic dose shown to be safe and well tolerated” value is given as “exceeding 40 g/day”.

Values taken from patent US6608051B1, “Compositions and methods for treating blood” (MedPointe Healthcare Inc., priority 1999, dated 2003).
